Reference: patent US11415579B2, “Assay for measuring a rate of reaction between a target and a ligand candidate” (Imperial College Innovations Ltd., priority 2016, dated 2022)

How the values were obtained:
[1] = Kinetic thiol consumption assay with model thiol glutathione; assay type: physicochemical; design: Rate constant with glutathione (k(GSH)): unit not given here; conditions: for Rate constant with glutathione (k(GSH)): 500 μM ligand, 5 μM thiol, phosphate buffer pH 8; for Rate constant with Glutathione: Protein: Glutathione, cysteine position NA, in h-1
Method in brief: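 First, 5 μM glutathione in degassed phosphate buffer (pH 8) receives immobilized TCEP beads (2% v/v). Then acrylamide is added and plates incubate 1 h at room temperature. Finally, fluorescence (380/470 nm) is normalized and fitted to first-order decay for rate constants.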

Cdk2[C177A, F80C, K278C] = biological target: T1, Cdk2[C177A, F80C, K278C] (Homo sapiens, UniProt P24941, C177A/F80C/K278C); test: Kinetic thiol consumption assay with mutant Cdk2 as model thiol; assay type: binding; design: unit not given here; conditions: 500 μM ligand, 5 μM thiol, phosphate buffer pH 8
T1 construct: poly-histidine; made in house; host or cells: E. coli
Procedure: A library of 120 acrylamides was screened against a) human cyclin-dependent kinase 2 (Cdk2, which contains one surface exposed cysteine residue—C177), prepared by cloning cDNA into the pRSETA bacterial expression vector to generate a poly-histidine tagged Cdk2 fusion that was purified from E. coli using standard techniques, and b) a model thiol (specific details are given below). The structures of these 120 acrylamides are set out in Table 1, above.
To wells containing 150 μL thiol (Cdk2 or model thiol) (5 μM) in degassed phosphate buffer (pH 8) was added immobilized TCEP beads (2% v/v).
After incubation of the fluorescence plates for 1 hour at room temperature, fluorescence measurements (excitation/emission of 380/470 nm) were taken on a PerkinElmer EnVision multilabel plate reader and processed with EnVision Workstation version 1.12.
Fluorescence measurements were normalized against a DMSO/thiol only control and plotted against time.
Rate constants were calculated using GraphPad software Prism version 6 by fitting a first order exponential decay to the data. The rate constant for each acrylamide with Cdk2 was divided by the rate constant for that fragment with the model thiol to provide the rate enhancement for each ligand candidate.
The model thiol used in Example 2 is a mutant form of human Cdk2 (C177A, F80C, K278C) which contains two engineered surface exposed cysteine residues. Mutations were introduced by site-directed mutagenesis and the resulting cDNA was cloned into the pRSETA bacterial expression vector to generate a poly-histidine tagged Cdk2 fusion that was purified from E. coli using standard techniques.

Cdk2(N272C) (C177A) = biological target: T2, Cdk2(N272C) (C177A) (Homo sapiens, UniProt P24941, C177A/N272C); test: Kinetic thiol consumption assay with Cdk2 mutant N272C; assay type: binding; design: key to Rate enhancement, Cdk2 N272: rate constant with Cdk2 ÷ rate constant with model thiol (fold); conditions: for Rate enhancement, Cdk2 N272: Cdk2 N272, additional mutation C177A; for Rate constant with Cdk2 N272C: Protein: Cdk2, cysteine position N272C, additional mutation C177A, in h^-1
T2 construct: poly-histidine; made in house; host or cells: E. coli
Method in brief: (§1)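 5 μM thiol, degassed phosphate pH 8, 2% v/v immobilized TCEP beads; 1 h RT; fluorescence ex 380/em 470 nm; normalized vs DMSO/thiol-only; first-order exponential decay fit → rate constant; Cdk2 k / model-thiol k = rate enhancement per acrylamide.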

Cdk2(C177A, F80C) = biological target: T3, Cdk2(C177A, F80C) (Homo sapiens, UniProt P24941, C177A/F80C); test: Kinetic thiol consumption assay with Cdk2 mutant F80C, incl. kobs versus concentration (Kd, k2); assay type: binding; design: key to Rate enhancement, Cdk2 F80C: Cdk2 rate constant divided by model-thiol rate constant; conditions: additional mutation C177A; for Rate constant with Cdk2 F80C: Protein: Cdk2, cysteine position F80C, in h^-1
T3 construct: poly-histidine; made in house; host or cells: E. coli
Method in brief: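 His-tagged Cdk2(C177A/F80C) from E. coli or model thiol, 5 μM in degassed phosphate buffer pH 8 with TCEP beads, reacted with acrylamide ligands; fluorescence (ex/em 380/470 nm) normalized to DMSO control and fitted to first-order decay for kobs. Kd and k2 obtained from hyperbolic fit of kobs versus ligand concentration.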

Cdk2(T182C) (C177A) = biological target: T4, Cdk2(T182C) (C177A) (Homo sapiens, UniProt P24941, C177A/T182C); test: Kinetic thiol consumption assay with Cdk2 mutant T182C; assay type: binding; design: key to Rate enhancement, Cdk2 T182C: rate constant with Cdk2 ÷ rate constant with model thiol (fold); conditions: additional mutation C177A; for Rate constant with Cdk2 T182C: Protein: Cdk2, cysteine position T182C, in h^-1
T4 construct: poly-histidine; made in house; host or cells: E. coli
Method in brief: as §1

Cdk2(R122C) (C177A) = biological target: T5, Cdk2(R122C) (C177A) (Homo sapiens, UniProt P24941, C177A/R122C); test: Kinetic thiol consumption assay with Cdk2 mutant R122C; assay type: binding; design: key to Rate enhancement, Cdk2 R122C: rate constant with Cdk2 ÷ rate constant with model thiol (fold); conditions: additional mutation C177A; for Rate constant with Cdk2 R122C: Protein: Cdk2, cysteine position R122C, in h-1
T5 construct: poly-histidine; made in house; host or cells: E. coli
Method in brief: as §1

Cdk2(S276C) (C177A) = biological target: T6, Cdk2(S276C) (C177A) (Homo sapiens, UniProt P24941, C177A/S276C); test: Kinetic thiol consumption assay with Cdk2 mutant S276C; assay type: binding; design: key to Rate enhancement, Cdk2 S276C: rate constant with Cdk2 ÷ rate constant with model thiol (fold); conditions: additional mutation C177A; for Rate constant with Cdk2 S276C: Protein: Cdk2, cysteine position S276C, in h^-1
T6 construct: poly-histidine; made in house; host or cells: E. coli
Method in brief: as §1

Cdk2(S181C) (C177A) = biological target: T7, Cdk2(S181C) (C177A) (Homo sapiens, UniProt P24941, C177A/S181C); test: Kinetic thiol consumption assay with Cdk2 mutant S181C; assay type: binding; design: key to Rate enhancement, Cdk2 S181C: rate constant with Cdk2 ÷ rate constant with model thiol (fold); conditions: additional mutation C177A; for Rate constant with Cdk2 S181C: Protein: Cdk2, cysteine position S181C, in h^-1
T7 construct: poly-histidine; made in house; host or cells: E. coli
Method in brief: as §1

[2] = biological target: T8, human cyclin-dependent kinase 2 (Cdk2) (Homo sapiens, UniProt P24941); test: Kinetic thiol consumption assay with wild type Cdk2 (C177); assay type: binding; design: key to Rate enhancement, Cdk2 WT: k(Cdk2) divided by k(model thiol); Rate constant with Cdk2 (k(Cdk2)): unit not given here; conditions: for Rate constant with Cdk2 (k(Cdk2)): 500 μM ligand, 5 μM thiol, phosphate buffer pH 8; for Rate enhancement, Cdk2 WT: no additional mutations; for Rate constant with Cdk2 WT: Protein: Cdk2, cysteine position WT, in h^-1; for k(Cdk2)/k(Cdk2_mut) rate enhancement: model thiol Cdk2[C177A, F80C, K278C]; for k(Cdk2)/k(GSH) rate enhancement: model thiol glutathione
T8 construct: poly-histidine; made in house; host or cells: E. coli
Method in brief: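 Rate enhancement: first-order decay constant with Cdk2 over that with a model thiol. Thiols (5 μM, degassed phosphate buffer pH 8, immobilized TCEP) were incubated with acrylamides at room temperature, and thiol consumption followed by fluorescence at 380/470 nm, normalized to DMSO control. Cdk2 was His-tagged, E. coli-expressed, with one surface cysteine (C177).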

Cdk2(H71C) (C177A) = biological target: T9, Cdk2(H71C) (C177A) (Homo sapiens, UniProt P24941, C177A/H71C); test: Kinetic thiol consumption assay with Cdk2 mutant H71C; assay type: binding; design: key to Rate enhancement, Cdk2 H71C: rate constant with Cdk2 ÷ rate constant with model thiol (fold); conditions: additional mutation C177A; for Rate constant with Cdk2 H71C: Protein: Cdk2, cysteine position H71C, in h^-1
T9 construct: poly-histidine; made in house; host or cells: E. coli
Method in brief: as §1

C=CC(=O)N1CCN(C(=O)OCC)CC1c1cccs1 (centres unmarked) [EL-1121]
Rate constant with glutathione (k(GSH)) [1]: 0.02567 | Rate constant with Glutathione [1]: 0.02567 | Rate constant with Cdk2[C177A, F80C, K278C] (k(Cdk2_mut)) (Cdk2[C177A, F80C, K278C]): 0.01555 | Rate enhancement, Cdk2 N272 (Cdk2(N272C) (C177A)): 0.5551 | Rate constant with Cdk2 N272C (Cdk2(N272C) (C177A)): 0.01425 | Rate enhancement, Cdk2 F80C (Cdk2(C177A, F80C)): 0.4897 | Rate constant with Cdk2 F80C (Cdk2(C177A, F80C)): 0.01257 | Rate enhancement, Cdk2 T182C (Cdk2(T182C) (C177A)): 1.411 | Rate constant with Cdk2 T182C (Cdk2(T182C) (C177A)): 0.03623 | Rate enhancement, Cdk2 R122C (Cdk2(R122C) (C177A)): 0.2677 | Rate constant with Cdk2 R122C (Cdk2(R122C) (C177A)): 0.006872 | Rate enhancement, Cdk2 S276C (Cdk2(S276C) (C177A)): 0.7713 | Rate constant with Cdk2 S276C (Cdk2(S276C) (C177A)): 0.0198 | Rate enhancement, Cdk2 S181C (Cdk2(S181C) (C177A)): 1.051 | Rate constant with Cdk2 S181C (Cdk2(S181C) (C177A)): 0.02699 | Rate constant with Cdk2 (k(Cdk2)) [2]: 0.01328 | Rate enhancement, Cdk2 WT [2]: 0.5173 | Rate constant with Cdk2 WT [2]: 0.01328 | k(Cdk2)/k(Cdk2_mut) rate enhancement [2]: 0.854 | k(Cdk2)/k(GSH) rate enhancement [2]: 0.5173 | Rate enhancement, Cdk2 H71C (Cdk2(H71C) (C177A)): 1.52 | Rate constant with Cdk2 H71C (Cdk2(H71C) (C177A)): 0.03901

C=CC(=O)Nc1nc2cc3c(cc2s1)OC(F)(F)O3 [CA-142]
Rate constant with glutathione (k(GSH)) [1]: 0.02031 | Rate constant with Glutathione [1]: 0.02028 | Rate constant with Cdk2[C177A, F80C, K278C] (k(Cdk2_mut)) (Cdk2[C177A, F80C, K278C]): 0.02268 | Rate enhancement, Cdk2 N272 (Cdk2(N272C) (C177A)): 0.3071 | Rate constant with Cdk2 N272C (Cdk2(N272C) (C177A)): 0.006229 | Rate enhancement, Cdk2 F80C (Cdk2(C177A, F80C)): 9.635 | Rate constant with Cdk2 F80C (Cdk2(C177A, F80C)): 0.1954 | Rate enhancement, Cdk2 T182C (Cdk2(T182C) (C177A)): 12.86 | Rate constant with Cdk2 T182C (Cdk2(T182C) (C177A)): 0.2609 | Rate enhancement, Cdk2 R122C (Cdk2(R122C) (C177A)): 0.1319 | Rate constant with Cdk2 R122C (Cdk2(R122C) (C177A)): 0.002674 | Rate enhancement, Cdk2 S276C (Cdk2(S276C) (C177A)): 3.68 | Rate constant with Cdk2 S276C (Cdk2(S276C) (C177A)): 0.07463 | Rate enhancement, Cdk2 S181C (Cdk2(S181C) (C177A)): 0.4029 | Rate constant with Cdk2 S181C (Cdk2(S181C) (C177A)): 0.00817 | Rate constant with Cdk2 (k(Cdk2)) [2]: 0.03086 | Rate enhancement, Cdk2 WT [2]: 1.522 | Rate constant with Cdk2 WT [2]: 0.03086 | k(Cdk2)/k(Cdk2_mut) rate enhancement [2]: 1.361 | k(Cdk2)/k(GSH) rate enhancement [2]: 1.519 | Rate enhancement, Cdk2 H71C (Cdk2(H71C) (C177A)): 0.1797 | Rate constant with Cdk2 H71C (Cdk2(H71C) (C177A)): 0.003644

C=CC(=O)NC1(C2CC2)CC1 [CA-047]
Rate constant with glutathione (k(GSH)) [1]: 0.00756 | Rate constant with Glutathione [1]: 0.0123 | Rate constant with Cdk2[C177A, F80C, K278C] (k(Cdk2_mut)) (Cdk2[C177A, F80C, K278C]): 0.00346 | Rate enhancement, Cdk2 N272 (Cdk2(N272C) (C177A)): 0.1665 | Rate constant with Cdk2 N272C (Cdk2(N272C) (C177A)): 0.002048 | Rate enhancement, Cdk2 F80C (Cdk2(C177A, F80C)): 0.1307 | Rate constant with Cdk2 F80C (Cdk2(C177A, F80C)): 0.001607 | Rate enhancement, Cdk2 T182C (Cdk2(T182C) (C177A)): 1.063 | Rate constant with Cdk2 T182C (Cdk2(T182C) (C177A)): 0.01308 | Rate enhancement, Cdk2 R122C (Cdk2(R122C) (C177A)): 0.2628 | Rate constant with Cdk2 R122C (Cdk2(R122C) (C177A)): 0.003233 | Rate enhancement, Cdk2 S276C (Cdk2(S276C) (C177A)): 0.5464 | Rate constant with Cdk2 S276C (Cdk2(S276C) (C177A)): 0.006721 | Rate enhancement, Cdk2 S181C (Cdk2(S181C) (C177A)): 0.2766 | Rate constant with Cdk2 S181C (Cdk2(S181C) (C177A)): 0.003402 | Rate constant with Cdk2 (k(Cdk2)) [2]: 0.0056 | Rate enhancement, Cdk2 WT [2]: 0.4553 | Rate constant with Cdk2 WT [2]: 0.0056 | k(Cdk2)/k(Cdk2_mut) rate enhancement [2]: 1.617 | k(Cdk2)/k(GSH) rate enhancement [2]: 0.7407 | Rate enhancement, Cdk2 H71C (Cdk2(H71C) (C177A)): 0
